Values of other authors in PubChem BioAssay AID1259409 (Chemical Carcinogenesis Research Information System (CCRIS), 2018).

Test system: rodent chemically induced tumor inhibition, incidence and multiplicity
Experiment: CCRIS tumor inhibitor studies
Settings: Carcinogen: 7,12-DIMETHYLBENZ[A]ANTHRACENE, 57-97-6, Dose [Inhibitor]: 0, Route [Inhibitor]: DERMAL, Species: MOUSE, 16561-29-8, 16561-29-8

For `CC[C@@H](C)[C@@H](N)C(=O)OC`, which “tumour outcome (control, treated, inhibition, significance)” value (1 MG IN 0.2 ML ACETONE APPLIED 30 MIN AFTER EACH MEZEREIN DOSE (STUDY DURATION: 20 WK), Strain/Sex: SENCAR/FEMALE, Target Tissue: Type of Lesion: SKIN: PAPILLOMA, Dose [Carcinogen]: 0.1 UMOL IN 0.2 ML ACETONE ONCE, Promoter: TPA, MEZEREIN, 37807-41-5, Promoter: TPA, MEZEREIN, 37807-41-5) is on record?
The value was 100%, 76%, 24%, p<0.005.

What about the “tumour outcome (control, treated, inhibition, significance)” value (1 MG IN 0.2 ML ACETONE APPLIED 30 MIN AFTER EACH TPA DOSE (STUDY DURATION: 20 WK), Strain/Sex: SENCAR/FEMALE, Target Tissue: Type of Lesion: SKIN: PAPILLOMA, Dose [Carcinogen]: 0.1 UMOL IN 0.2 ML ACETONE ONCE, Promoter: TPA, MEZEREIN, 37807-41-5, Promoter: TPA, MEZEREIN, 37807-41-5) of the same compound?
The value was 100%, 83%, 17%, p<0.005.

With `COc1c(C)c(O)c(C(C)=O)c(O)c1Cc1c(O)c(CC=C(C)C)c(O)c(C(C)=O)c1O` as the compound, how does the “tumour outcome (control, treated, inhibition, significance)” value (162 NMOL IN 100 µL ACETONE 2/WK FOR 20 WK BEGINNING 1 WK POST CARCINOGEN DOSE (STUDY DURATION: 21 WK), Strain/Sex: ICR/FEMALE, Target Tissue: Type of Lesion: SKIN: TUMOR, Dose [Carcinogen]: 100 UG ONCE, Promoter: 12-O-TETRADECANOYLPHORBOL-13-ACETATE) read?
Its value is 40%, 36%, 10%, not significant.

And the “tumour outcome (control, treated, inhibition, significance)” value (1620 NMOL IN 100 µL ACETONE 2/WK FOR 20 WK BEGINNING POST CARCINOGEN DOSE (STUDY DURATION: 21 WK), Strain/Sex: ICR/FEMALE, Target Tissue: Type of Lesion: SKIN: TUMOR, Dose [Carcinogen]: 100 UG ONCE, Promoter: 12-O-TETRADECANOYLPHORBOL-13-ACETATE)?
Its value is 52%, 0%, 100%, not calculated.

For `CC/C=C\C/C=C\C/C=C\CCCCCCCC(=O)OC[C@H](CO[C@@H]1O[C@H](CO[C@H]2O[C@H](CO)[C@H](O)[C@H](O)[C@H]2O)[C@H](O)[C@H](O)[C@H]1O)OC(=O)CCCCCCCCCCCCC`, which “tumour outcome (control, treated, inhibition, significance)” value (85 NMOL IN 0.1 ML ACETONE 2/WK FOR 20 WK APPLIED 1 HR PRIOR TO EACH PROMOTER DOSE (STUDY DURATION: 21 WK), Strain/Sex: ICR/FEMALE, Target Tissue: Type of Lesion: SKIN: PAPILLOMA, Dose [Carcinogen]: 390 NMOL IN 0.1 ML ACETONE ONCE, Promoter: 12-O-TETRADECANOYLPHORBOL-13-ACETATE) is on record?
The value was 100%, 68%, 32%, p<0.05.
